According to US20040121947A1, “Compounds which inhibit beta-secretase activity and methods of use thereof” (Oklahoma Medical Research Foundation, priority 2000, published 2004):
Values joined by “and” are separate entries in the source; they are usually repeats but may differ in a detail not shown here. Identical values can stand only once. Like-named read-outs stand apart in the source and are kept apart here. *1 amine or outer side, *2 acyl side, *3 side chain or, on linkers, in order; H or OH if unused. Where a SMILES comes first, the peptide text is derived from it. [ ]: non-standard residue; d: D form. LeuΨ(S-CHOHCH2)Ala = CC(C)C[C@H](N[*:1])[C@@H](O)C[C@@H](C)C(=O)[*:2]

Experiments:
[1] = system: plasma Aβ40; test: Inhibition of Aβ production in transgenic mice (plasma Aβ40 ELISA); assay type: in vivo, tg2576 mice; conditions: for Effect on plasma Aβ40: i.p. injection, 2 hours following injection
Description: Six-month-old tg2576 mice (n=21) were injected intraperitoneally (i.p.) 200 μg of conjugate CPI-3 or with control DMSO, in 200 μl of PBS. Plasma were collected from anesthetized animals by orbital bleed or sephaneous vein into heparinized capillary tubes and clarified by centrifugation. Plasma Aβ 1-40 levels were determined by capture ELISA (BioSource International, Camarillo, Calif.). The peptide analogue of CPI-3, with an amide group instead of the hydroxyethylene isostere was synthesized by SynPep (Camarillo, Calif.).
Since the conjugate inhibitors can cross the blood brain barrier in vivo, enter cells both in vitro and in vivo, and inhibit Aβ production in vitro, inhibition of Aβ production in vivo was determined. Tg2576 mice, expressing the Swedish mutation of the human amyloid precursor protein (including SEQ ID NO: 11) (Hsiao, K., et al., Science 274:99-102 (1996), the teachings of which are incorporated hereby in their entirety) were injected with CPI-3, which is identical in amino acid sequence to CPI-2 and lacks the amino-terminal fluorescein (FAM) derivative. Blood was collected from tg2576 animals at time intervals following injection of 400 μg of CPI-3.
At ages up to 9 months, plasma Aβ in the tg2576 mice serves as a reliable marker for brain Aβ production as a result of memapsin 2 activity (Kawarabayashi, T., et al., J Neurosci. 21:372-381 (2001)). Nine tg2576 mice were injected intraperitoneally with various doses of inhibitor CPI-3.

[2] = target: T1, memapsin 1 (Homo sapiens, UniProt Q9Y5Z0); test: Inhibition of memapsin 1 proteolytic activity, fluorogenic substrate FS-2; assay type: biochemical; conditions: for % Inhibition Mep1: enzyme concentration equals the compound concentration
T1 construct: pET-11 vector-derived residues 1-14 of promemapsin 1-T1 (N, cleaved yes); made in house; host or cells: E. coli
T1 sequence (Q9Y5Z0 63-466 limits assumed): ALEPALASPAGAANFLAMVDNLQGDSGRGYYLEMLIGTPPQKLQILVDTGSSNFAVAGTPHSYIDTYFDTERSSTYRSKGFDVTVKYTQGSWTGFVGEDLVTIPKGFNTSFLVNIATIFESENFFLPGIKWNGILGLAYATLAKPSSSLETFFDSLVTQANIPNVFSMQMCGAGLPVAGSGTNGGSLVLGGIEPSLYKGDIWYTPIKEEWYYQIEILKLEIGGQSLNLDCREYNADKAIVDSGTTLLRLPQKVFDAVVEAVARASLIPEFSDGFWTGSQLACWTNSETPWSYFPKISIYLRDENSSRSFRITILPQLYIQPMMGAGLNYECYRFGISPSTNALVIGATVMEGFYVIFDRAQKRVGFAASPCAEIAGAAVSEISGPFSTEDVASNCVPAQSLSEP
Description: Vi/Vo depicts the ratio of initial cleavage velocities of the substrate FS-2 (Ermolieff, et al., Biochemistry […]:12450-12456 (2000)) by memapsin 1 or memapsin 2 in the absence (Vo) or presence (Vi) of a compound of the invention. […] The Vi/Vo values depicted in Table 1 were determined at conditions under which the enzyme and inhibitor concentrations were equal (e.g., about 80 nM, 100 nM).
The relationship of Ki (independent of substrate concentration) to Kiapp is a function of substrate concentration in the assay and the Km for cleavage of the substrate by either memapsin 1 or memapsin 2 by the relationship:
An aliquot of the inhibitor of known concentration in DMSO was diluted into 1.8 ml 0.1 M NaOAc, pH 4.0. DMSO and added to a final concentration of 10% (v/v), and memapsin 2 (final concentration of 80 nM), followed by a 20 minute equilibration at 37° C. Compounds were evaluated for the ability to inhibit memapsin 1 and memapsin 2 at concentrations between about 10 nM and about 10 μm of inhibitor.
The relationship of Ki (independent of substrate concentration) to Kiapp is a function of substrate concentration in the assay and the Km for cleavage of the substrate by either memapsin 1 or memapsin 2 by the relationship: […]

[3] = target: T2, memapsin 2 (Homo sapiens, UniProt P56817); test: Inhibition of memapsin 2 proteolytic activity, fluorogenic substrate FS-2; assay type: biochemical; conditions: for % Inhibition Mep2: enzyme concentration equals the compound concentration; for Selectivity: Ki for memapsin 2 lower than Ki for memapsin 1: memapsin 2 relative to memapsin 1; for % Inh (M1/M2): ratio of % inhibition memapsin 1 / memapsin 2, 1 or less = greater inhibition of memapsin 2
T2 construct: pET-11 vector-derived residues 1-15 of promemapsin 2-T1 (N, cleaved yes); made in house; host or cells: E. coli
T2 sequence (P56817 41-454 limits assumed): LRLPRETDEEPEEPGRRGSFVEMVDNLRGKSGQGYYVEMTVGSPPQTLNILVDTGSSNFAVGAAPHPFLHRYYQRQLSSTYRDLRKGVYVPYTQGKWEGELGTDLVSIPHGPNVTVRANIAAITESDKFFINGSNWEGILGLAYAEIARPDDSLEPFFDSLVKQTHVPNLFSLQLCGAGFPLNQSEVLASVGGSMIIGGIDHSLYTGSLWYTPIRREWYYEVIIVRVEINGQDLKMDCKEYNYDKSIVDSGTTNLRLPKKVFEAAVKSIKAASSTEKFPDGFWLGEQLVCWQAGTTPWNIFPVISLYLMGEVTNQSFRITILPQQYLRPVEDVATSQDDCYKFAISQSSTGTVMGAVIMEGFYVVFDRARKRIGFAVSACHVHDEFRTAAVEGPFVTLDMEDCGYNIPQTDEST
Summary of the method: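 Inhibitors tested at about 10 nM to 10 μM in pH 4.0 0.1 M sodium acetate containing 10% (v/v) DMSO, after 20 min preincubation at 37 °C with 80 nM self-activated memapsin 2. Substrate-independent Ki derived from apparent Ki via Km and substrate level.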

[4] = system: plasma Aβ40; test: Inhibition of Aβ production in transgenic mouse model of Alzheimer's disease (plasma Aβ40 ELISA); assay type: in vivo, APP/F mice; conditions: for Sustainment of inhibition of plasma Aβ40: over a 24-h period; for Blood brain barrier penetration (from reduction of plasma Aβ): transgenic mice
Description: Compounds MMI-138, MMI-165, and MMI-185 were synthesized as described above. Compounds were dissolved in 1 ml of dimethyl sulfoxide (DMSO) to a final concentration of about 1 mg/ml for MMI-165 and MMI-185, and about 10 mg/ml for MMI-138. […] Inhibitors were diluted into PBS or H2O immediately prior to injection, as described below. Inhibition constants were determined by methods described by Ermolieff, et al. (Biochem. 39:12450-12456 (2000), the teachings of which are incorporated hereby in their entirety).
The tg2576 strain of mice was obtained from Taconic (Germantown, N.Y.). The APP/F strain of mice were obtained by mating the tg2576 mice with the FVB/N strain. To determine presence of the Swedish APP gene in APP/F mice, the DNA from mice was isolated according to the Qiagen Dneasy™ Tissue Kit. PCR (Qiagen kit and protocol) was used to amplify the fragment of DNA corresponding to the human Swedish APP gene. The following primers were used: […]
At the age of three months, animals of the Alzheimer's disease mouse model APP/F were injected intraperitoneally (i.p.) with about 163 nanomoles of either compounds MMI-138 (molecular weight 674 g/mole; 110 μg per animal, n=2), MMI-165 (molecular weight 626 g/mole; 102 μg per animal, n=2), or MMI-185 (molecular weight 686; 112 μg per animal, n=2).
Heparinized capillary tubes collected blood samples from anesthetized animals from either the retro-orbital sinus or from the saphenous vein at specified intervals following injection. The blood samples were transferred to sterile 1.5 mL microcentrifuge tubes, centrifuged at 5,100 RPM for 10 minutes to recover the plasma (supernatant), and stored at −70° C. until analysis for the Aβ40 by Enzyme Linked-Immuno-Sorbent Assay (ELISA).
A sandwich ELISA (BioSource International, Camarillo, Calif.) was used to determine the levels of Aβ40 in plasma samples. The ELISA utilizes a primary antibody specific for human Aβ for the immobilization of the amino-terminus and a detection antibody specific for the carboxy-terminal amino acids of Aβ40. A conjugated secondary antibody was used to detect the ternary complex, using a stabilized chromogen substrate, quantifiable following addition of 1 M HCl, with the optical densities measured at 450 nm. The procedures were followed according to the BioSource protocol. Optical densities were converted to pg/ml quantities of Aβ40 using a linear regression of the optical densities of standards obtained from the commercial kit, to their known concentrations.

[5] = four injections at 2 hour intervals
[6] = Table 9, read-out: Ki apparent Mep2
[7] = memapsin 2, apparent Ki in presence of substrate FS-2, read-out: Ki app
[8] = within 30 minutes following i.p. injection of about 163 nanomoles
[9] = memapsin 2, independent of substrate, converted from Ki apparent, read-out: Ki

Structure (SMILES) | % Inhibition Mep1 [2] | Ki [3, 6] | % Inhibition Mep2 [3] | Ki [3, 7] | Ki ([3]; memapsin 2, read-out: Ki) | % Inh (M1/M2) [3] | Blood brain barrier penetration (from reduction of plasma Aβ) [4] | Ki [3, 9] | Effect on plasma Aβ40 [1] | Sustainment of inhibition of plasma Aβ40 [4] | Decrease in plasma Aβ40 [4, 8] | further results
CC(C)C[C@H](NC(=O)[C@@H](N)CCC(=O)O)C(=O)N[C@@H](CC(=O)O)C(=O)N[C@@H](CC(C)C)[C@@H](O)C[C@@H](C)C(=O)N[C@H](C(=O)N[C@@H](CCC(=O)O)C(=O)N[C@@H](Cc1ccccc1)C(=O)NCC(=O)NCC(=O)N[C@H](CCCNC(=N)N)C(=O)N[C@H](CCCNC(=N)N)C(=O)N[C@H](CCCNC(=N)N)C(=O)N[C@H](CCCNC(=N)N)C(=O)N[C@H](CCCNC(=N)N)C(=O)N[C@H](CCCNC(=N)N)C(=O)N[C@H](CCCNC(=N)N)C(=O)N[C@H](CCCNC(=N)N)C(=O)N[C@H](CCCNC(=N)N)C(=O)O)C(C)C [CPI-3] (H-ELD[LeuΨ(S-CHOHCH2)Ala]VEFGG[dR][dR][dR][dR][dR][dR][dR][dR][dR]-OH) |  |  |  |  |  |  |  |  | significant dose-dependent reduction |  |  | Plasma Aβ40 level relative to initial value ([1]; 2 hours following i.p. injection): about one third; Aβ level, average low, % of the average initial value [1, 5]: 29%; Inhibition of plasma Aβ [1, 5]: about 80%; Half-life of inhibition of plasma Aβ40 ([1]; single i.p. injection): 3 h; Time of return of plasma Aβ40 level to the initial value ([1]; single i.p. injection): ≤ 8 h
CSCC[C@H](NC(=O)OCn1nc(C)cc1C)C(=O)N[C@@H](CC(C)C)[C@@H](O)C[C@@H](C)C(=O)N[C@H](C(=O)NCc1ccccc1)C(C)C [MMI-138] | 7% | 14.2 nM | 72% | 14.2 nM | 14.2 nM and 8.8 nM | 0.10 | penetrated the blood brain barrier |  |  | remained nearly constant | 57% | Ki ([2]; read-out: Ki for memapsin 1): 811 nM; Selectivity: Ki for memapsin 2 lower than Ki for memapsin 1 [3]: about 60 fold; Selectivity: Ki for memapsin 2 lower than Ki for memapsin 1 ([3]; listed as 138): about 60 fold
CC(C)C[C@H](NC(=O)[C@@H](N)CCC(=O)O)C(=O)N[C@@H](CC(=O)O)C(=O)N[C@@H](CC(C)C)[C@@H](O)C[C@@H](C)C(=O)N[C@H](C(=O)N[C@@H](CCC(=O)O)C(=O)N[C@@H](Cc1ccccc1)C(=O)O)C(C)C [OM00-3, ELDL*AVEF] (H-ELD[LeuΨ(S-CHOHCH2)Ala]VEF-OH) |  |  |  |  |  |  |  |  | did not reduce plasma Aβ40 levels |  |  | Decrease in plasma Aβ40 ([4]; 2 hours following injection of 163 nmoles): 16%; Inhibition of Aβ40 production in vivo ([4]; plasma Aβ40): failed to inhibit Aβ40 production

Continued, in another order:

% Inhibition Mep1 [2] | Ki [3, 6] | % Inhibition Mep2 [3] | Ki [3, 7] | Ki ([3]; memapsin 2, read-out: Ki) | % Inh (M1/M2) [3] | Blood brain barrier penetration (from reduction of plasma Aβ) [4] | Ki [3, 9] | Structure (SMILES) | Effect on plasma Aβ40 [1] | Sustainment of inhibition of plasma Aβ40 [4] | Decrease in plasma Aβ40 [4, 8] | further results
27% | 24.5 nM | 60% | 24.5 nM | 15.3 nM | 0.45 | penetrated the blood brain barrier | 15.3 nM | CSCC[C@H](NC(=O)OCn1nc(C)cc1C)C(=O)N[C@@H](CC(C)C)[C@@H](O)C[C@@H](C)C(=O)N[C@H](C(=O)NC(C)C)C(C)C [MMI-165] |  | remained nearly constant | 46% | Vi/Vo ([3]; ratio of initial cleavage velocities of FS-2 with/without compound, enzyme and inhibitor concentrations equal (e.g., about 80 nM, 100 nM)): 0.4
 |  |  | 7.23 nM | 4.5 nM |  | penetrated the blood brain barrier | 4.52 nM | COCC[C@H](NC(=O)[C@H](CC(C)C)NC(=O)OC(C)(C)C)C(=O)N[C@@H](CC(C)C)[C@@H](O)C[C@@H](C)C(=O)N[C@@H](CC(C)C)C(=O)NC(C)C [MMI-185] |  | appeared to return to initial level | 63% | 
